Results as given in patent publication US20070049564A1 (Wyeth, priority 2005, published 2007).
In brackets after ≈: the same amount, converted by molar mass. Where two headings read alike, the source gives them in different places.

Key:
[1] = tested on: E. coli GC 2235; experiment: MIC, broth microdilution; settings: Escherichia coli
[2] = tested on: E. coli GC 2272; experiment: MIC, broth microdilution; settings: Escherichia coli
[3] = tested on: E. coli GC 4559; experiment: MIC, broth microdilution; settings: Escherichia coli
[4] = tested on: E. coli GC 4560; experiment: MIC, broth microdilution; settings: Escherichia coli
[5] = tested on: E. coli GC 6465; experiment: MIC, broth microdilution; settings: Escherichia coli
[6] = tested on: E. coli GC 1073; experiment: MIC, broth microdilution; settings: Escherichia coli
[7] = tested on: S. typhimurium GC 2172; experiment: MIC, broth microdilution; settings: Salmonella enterica, TYPHIMURIUM
[8] = tested on: S. aureus GC 1131; experiment: MIC, broth microdilution; settings: Staphylococcus aureus
[9] = tested on: S. aureus GC 6467; experiment: MIC, broth microdilution; settings: Staphylococcus aureus
[10] = tested on: S. aureus GC 1079; experiment: MIC, broth microdilution; settings: Staphylococcus aureus
[11] = tested on: S. aureus GC 4536; experiment: MIC, broth microdilution; settings: Staphylococcus aureus
[12] = tested on: S. epidermidis GC 4935; experiment: MIC, broth microdilution; settings: Staphylococcus epidermidis
[13] = tested on: E. faecalis GC 4555; experiment: MIC, broth microdilution; settings: Enterococcus faecalis
[14] = tested on: E. faecalis GC 2267; experiment: MIC, broth microdilution; settings: Enterococcus faecalis
[15] = tested on: E. faecalis GC 2242; experiment: MIC, broth microdilution; settings: Enterococcus faecalis
[16] = tested on: S. pneumoniae* GC 4465; experiment: MIC, broth microdilution; settings: Streptococcus pneumoniae
[17] = tested on: S. pneumoniae+ GC 4465; experiment: MIC, broth microdilution; settings: Streptococcus pneumoniae
[18] = tested on: S. agalactiae GC 4564; experiment: MIC, broth microdilution; settings: Streptococcus agalactiae
[19] = tested on: c. albicans GC 3066; experiment: MIC, broth microdilution
[20] = tested on: Staph. aureus Smith; experiment: In vivo activity (oral, iv; ED50) against Staph. aureus Smith in mice
[21] = read-out: MINIMAL INHIBITORY CONCENTRATION MIC, Human Serum
[22] = read-out: MINIMAL INHIBITORY CONCENTRATION MIC, Mouse Serum
[23] = read-out: MINIMAL INHIBITORY CONCENTRATION MIC, Water

- MIC ([1]; GC2235, read-out: MINIMAL INHIBITORY CONCENTRATION MIC, Human Serum): 4 µg/mL (≈ 5.12 µM)
- MIC ([1]; GC2235, read-out: MINIMAL INHIBITORY CONCENTRATION MIC, Mouse Serum): 0.5 µg/mL (≈ 0.64 µM)
- MIC ([1]; GC2235, read-out: MINIMAL INHIBITORY CONCENTRATION MIC, Water): 4 µg/mL (≈ 5.12 µM)
- MIC ([2]; GC2272, read-out: MINIMAL INHIBITORY CONCENTRATION MIC, Human Serum): 4 µg/mL (≈ 5.12 µM)
- MIC ([2]; GC2272, read-out: MINIMAL INHIBITORY CONCENTRATION MIC, Mouse Serum): 0.5 µg/mL (≈ 0.64 µM)
- MIC ([2]; GC2272, read-out: MINIMAL INHIBITORY CONCENTRATION MIC, Water): 4 µg/mL (≈ 5.12 µM)
- MIC ([3]; GC4559, read-out: MINIMAL INHIBITORY CONCENTRATION MIC, Human Serum): 8 µg/mL (≈ 10.2 µM)
- MIC ([3]; GC4559, read-out: MINIMAL INHIBITORY CONCENTRATION MIC, Mouse Serum): 1 µg/mL (≈ 1.28 µM)
- MIC ([3]; GC4559, read-out: MINIMAL INHIBITORY CONCENTRATION MIC, Water): 8 µg/mL (≈ 10.2 µM)
- MIC ([4]; GC4560, read-out: MINIMAL INHIBITORY CONCENTRATION MIC, Human Serum): 2 µg/mL (≈ 2.56 µM)
- MIC ([4]; GC4560, read-out: MINIMAL INHIBITORY CONCENTRATION MIC, Mouse Serum): 0.25 µg/mL (≈ 0.32 µM)
- MIC ([4]; GC4560, read-out: MINIMAL INHIBITORY CONCENTRATION MIC, Water): 2 µg/mL (≈ 2.56 µM)
- MIC ([5]; GC6465, read-out: MINIMAL INHIBITORY CONCENTRATION MIC, Human Serum): 16 µg/mL (≈ 20.5 µM)
- MIC ([5]; GC6465, read-out: MINIMAL INHIBITORY CONCENTRATION MIC, Mouse Serum): 2 µg/mL (≈ 2.56 µM)
- MIC ([5]; GC6465, read-out: MINIMAL INHIBITORY CONCENTRATION MIC, Water): 64 µg/mL (≈ 81.9 µM)
- MIC ([6]; GC1073, read-out: MINIMAL INHIBITORY CONCENTRATION MIC, Human Serum): 8 µg/mL (≈ 10.2 µM)
- MIC ([6]; GC1073, read-out: MINIMAL INHIBITORY CONCENTRATION MIC, Mouse Serum): 1 µg/mL (≈ 1.28 µM)
- MIC ([6]; GC1073, read-out: MINIMAL INHIBITORY CONCENTRATION MIC, Water): 4 µg/mL (≈ 5.12 µM)
- MIC [7, 21]: 64 µg/mL (≈ 81.9 µM)
- MIC [7, 22]: 4 µg/mL (≈ 5.12 µM)
- MIC [7, 23]: 64 µg/mL (≈ 81.9 µM)
- MIC ([8]; GC1131, read-out: MINIMAL INHIBITORY CONCENTRATION MIC, Human Serum): 1 µg/mL (≈ 1.28 µM)
- MIC ([8]; GC1131, read-out: MINIMAL INHIBITORY CONCENTRATION MIC, Mouse Serum): 0.5 µg/mL (≈ 0.64 µM)
- MIC ([8]; GC1131, read-out: MINIMAL INHIBITORY CONCENTRATION MIC, Water): 2 µg/mL (≈ 2.56 µM)
- MIC ([9]; GC6467, read-out: MINIMAL INHIBITORY CONCENTRATION MIC, Human Serum): 4 µg/mL (≈ 5.12 µM)
- MIC ([9]; GC6467, read-out: MINIMAL INHIBITORY CONCENTRATION MIC, Mouse Serum): 0.5 µg/mL (≈ 0.64 µM)
- MIC ([9]; GC6467, read-out: MINIMAL INHIBITORY CONCENTRATION MIC, Water): 4 µg/mL (≈ 5.12 µM)
- MIC ([10]; GC1079, read-out: MINIMAL INHIBITORY CONCENTRATION MIC, Human Serum): 1 µg/mL (≈ 1.28 µM)
- MIC ([10]; GC1079, read-out: MINIMAL INHIBITORY CONCENTRATION MIC, Mouse Serum): 0.5 µg/mL (≈ 0.64 µM)
- MIC ([10]; GC1079, read-out: MINIMAL INHIBITORY CONCENTRATION MIC, Water): 2 µg/mL (≈ 2.56 µM)
- MIC ([11]; GC4536, read-out: MINIMAL INHIBITORY CONCENTRATION MIC, Human Serum): 0.5 µg/mL (≈ 0.64 µM)
- MIC ([11]; GC4536, read-out: MINIMAL INHIBITORY CONCENTRATION MIC, Mouse Serum): 0.5 µg/mL (≈ 0.64 µM)
- MIC ([11]; GC4536, read-out: MINIMAL INHIBITORY CONCENTRATION MIC, Water): 2 µg/mL (≈ 2.56 µM)
- MIC ([12]; GC4935, read-out: MINIMAL INHIBITORY CONCENTRATION MIC, Human Serum): 4 µg/mL (≈ 5.12 µM)
- MIC ([12]; GC4935, read-out: MINIMAL INHIBITORY CONCENTRATION MIC, Mouse Serum): 1 µg/mL (≈ 1.28 µM)
- MIC ([12]; GC4935, read-out: MINIMAL INHIBITORY CONCENTRATION MIC, Water): 4 µg/mL (≈ 5.12 µM)
- MIC ([13]; GC4555, read-out: MINIMAL INHIBITORY CONCENTRATION MIC, Human Serum): 2 µg/mL (≈ 2.56 µM)
- MIC ([13]; GC4555, read-out: MINIMAL INHIBITORY CONCENTRATION MIC, Mouse Serum): 0.5 µg/mL (≈ 0.64 µM)
- MIC ([13]; GC4555, read-out: MINIMAL INHIBITORY CONCENTRATION MIC, Water): 4 µg/mL (≈ 5.12 µM)
- MIC ([14]; GC2267, read-out: MINIMAL INHIBITORY CONCENTRATION MIC, Human Serum): 4 µg/mL (≈ 5.12 µM)
- MIC ([14]; GC2267, read-out: MINIMAL INHIBITORY CONCENTRATION MIC, Mouse Serum): 0.5 µg/mL (≈ 0.64 µM)
- MIC ([14]; GC2267, read-out: MINIMAL INHIBITORY CONCENTRATION MIC, Water): 4 µg/mL (≈ 5.12 µM)
- MIC ([15]; GC2242, read-out: MINIMAL INHIBITORY CONCENTRATION MIC, Human Serum): 4 µg/mL (≈ 5.12 µM)
- MIC ([15]; GC2242, read-out: MINIMAL INHIBITORY CONCENTRATION MIC, Mouse Serum): 0.5 µg/mL (≈ 0.64 µM)
- MIC ([15]; GC2242, read-out: MINIMAL INHIBITORY CONCENTRATION MIC, Water): 4 µg/mL (≈ 5.12 µM)
- MIC [16, 21]: 0.25 µg/mL (≈ 0.32 µM)
- MIC [16, 22]: < 0.06 µg/mL
- MIC [16, 23]: 0.12 µg/mL (≈ 0.153 µM)
- MIC [17, 21]: 4 µg/mL (≈ 5.12 µM)
- MIC [17, 22]: 1 µg/mL (≈ 1.28 µM)
- MIC [17, 23]: 2 µg/mL (≈ 2.56 µM)
- MIC ([18]; GC4564, read-out: MINIMAL INHIBITORY CONCENTRATION MIC, Human Serum): 0.5 µg/mL (≈ 0.64 µM)
- MIC ([18]; GC4564, read-out: MINIMAL INHIBITORY CONCENTRATION MIC, Mouse Serum): 0.12 µg/mL (≈ 0.153 µM)
- MIC ([18]; GC4564, read-out: MINIMAL INHIBITORY CONCENTRATION MIC, Water): 0.5 µg/mL (≈ 0.64 µM)
- MIC ([19]; Candida albicans, GC3066, read-out: MINIMAL INHIBITORY CONCENTRATION MIC): > 64 µg/mL
- MINIMAL INHIBITORY CONCENTRATION MIC ([19]; Human Serum): >64 UG/ML
- MINIMAL INHIBITORY CONCENTRATION MIC ([19]; Mouse Serum): >64 UG/ML
SMILES: CN(C)c1cc(NC(=O)CN(C(=O)OCOC(=O)c2ccc(F)cc2)C(C)(C)C)c(O)c2c1C[C@H]1C[C@H]3[C@H](N(C)C)C(O)=C(C(N)=O)C(=O)[C@@]3(O)C(O)=C1C2=O [Example 52, ({[(2-{[(5aR,6aS,7S,10aS)-9-(aminocarbonyl)-4,7-bis(dimethylamino)-1,8,10a,11-tetrahydroxy-10,12-dioxo-5,5a,6,6a,7,10,10a,12-octahydrotetracen-2-yl]amino}-2-oxoethyl)(tert-butyl)amino]carbonyl}oxy)methyl 4-fluorobenzoate]
- ED50 ([20]; Staphylococcus aureus, in Mus musculus, iv, read-out: ED50 SIV (Staph aureus Smith)): 1.29 mg/kg
- ED50 ([20]; Staphylococcus aureus, in Mus musculus, po, read-out: ED50 SOD (Staph aureus Smith)): 10.7 mg/kg
- ED50 ([20]; Staphylococcus aureus, in Mus musculus, po, read-out: ED50 Staph Smith SOD): 10.7 mg/kg
- ED50 ([20]; iv, read-out: ED50 Staph Smith SIV): 1.29 mg/kg
